The text below walks through data of ChEMBL document CHEMBL3046154, “Synthesis and biological activity of 2-(4,5-dihydroisoxazol-5-yl)-1,3,4-oxadiazoles” (2009).

Format in all cases: functional
Holding throughout (set-up): concentration or dose not given beside the values

One assay concerns Spodoptera exigua. Briefly: Insecticidal activity against Spodoptera exigua assessed as mortality.
In another assay the test system is Pyricularia oryzae. Briefly: Antifungal activity against Magnaporthe oryzae assessed as disease control.
A further assay relates to Zymoseptoria tritici. As to the kind of experiment: Antifungal activity against Zymoseptoria tritici assessed as disease control.

SMILES strings stand for the structures.

As to `CC1(c2nnc(-c3ccc(Cl)cc3)o2)CC(c2ccncc2)=NO1` (stereo not drawn), the Activity in the assay on Spodoptera exigua is 0%; in the assay with Pyricularia oryzae it was 30%; in the assay with Zymoseptoria tritici it was 70%.

On to `CC1(c2nnc(-c3ccc(Cl)cc3)o2)CC(c2ccc(Cl)cc2)=NO1` (stereo not drawn), for which the Activity with Spodoptera exigua is reported as 17%; in the assay on Pyricularia oryzae it was 50%; in the assay with Zymoseptoria tritici, 0%.

In the case of `CC1(c2nnc(Cc3ccccc3)o2)CC(c2ccc([N+](=O)[O-])cc2)=NO1` (stereo not drawn), the Activity stood at 17% in the assay on Spodoptera exigua, 30% in the assay with Pyricularia oryzae and 30% in the assay on Zymoseptoria tritici.

With `Clc1cccc(C2=NOC(c3nnc(-c4ccccc4)o3)C2)c1` (stereo not drawn), the Activity in the assay with Spodoptera exigua was 0%; in the assay with Pyricularia oryzae, 30%; in the assay with Zymoseptoria tritici, 0%.

As to `Clc1cccc(Cl)c1C1=NOC(c2nnc(-c3ccccc3)o2)C1` (stereo not drawn), the values for the Activity in the assay on Spodoptera exigua, in the assay on Pyricularia oryzae and in the assay on Zymoseptoria tritici were 17%, 40% and 30%, respectively.

As to `Fc1ccc(C2=NOC(c3nnc(-c4ccccc4)o3)C2)cc1` (stereo not drawn), the Activity stood at 17% in the assay on Spodoptera exigua, 30% with Pyricularia oryzae and 0% in the assay on Zymoseptoria tritici.

Take `CC1(c2nnc(-c3ccc(Cl)cc3)o2)CC(c2cccc(Cl)c2)=NO1` (stereo not drawn): the Activity is reported as 50% in the assay with Spodoptera exigua, 50% in the assay with Pyricularia oryzae and 10% with Zymoseptoria tritici.

With `CC1(c2nnc(-c3cccc(Cl)c3)o2)CC(c2cccc(Cl)c2)=NO1` (stereo not drawn), the Activity in the assay with Spodoptera exigua was found to be 33%; with Pyricularia oryzae, 30%; in the assay on Zymoseptoria tritici, 0%.

In the case of `c1ccc(-c2nnc(C3CC(c4ccncc4)=NO3)o2)cc1` (stereo not drawn), the Activity in the assay with Spodoptera exigua, in the assay with Pyricularia oryzae and in the assay with Zymoseptoria tritici was 0% throughout.

Regarding `CC1(c2nnc(-c3cccc(Cl)c3)o2)CC(c2ccccc2)=NO1` (stereo not drawn), the Activity in the assay on Spodoptera exigua was 17%; in the assay with Pyricularia oryzae, 40%; in the assay with Zymoseptoria tritici, 10%.

For the compound `CC1(c2nnc(-c3ccc(Cl)cc3)o2)CC(c2ccc([N+](=O)[O-])cc2)=NO1` (stereo not drawn), the figures for the Activity in the assay on Spodoptera exigua, with Pyricularia oryzae and in the assay on Zymoseptoria tritici were 0%, 30% and 40%, respectively.

Regarding `CC1(c2nnc(-c3cccc(Cl)c3)o2)CC(c2ccc(Cl)cc2)=NO1` (stereo not drawn), the figures for the Activity in the assay on Spodoptera exigua, in the assay on Pyricularia oryzae and in the assay on Zymoseptoria tritici were 50%, 40% and 0%, respectively.

Consider `Clc1ccc(C2=NOC(c3nnc(-c4ccccc4)o3)C2)cc1` (stereo not drawn), for which the Activity came out at 17% in the assay on Spodoptera exigua, 0% in the assay with Pyricularia oryzae and 0% in the assay on Zymoseptoria tritici.

For `CC1(c2nnc(Cc3ccccc3)o2)CC(c2c(Cl)cccc2Cl)=NO1` (stereo not drawn), the Activity in the assay on Spodoptera exigua, with Pyricularia oryzae and in the assay on Zymoseptoria tritici was 0% throughout.

In the case of `CC1(c2nnc(-c3cccc(Cl)c3)o2)CC(c2ccc(F)cc2)=NO1` (stereo not drawn), the Activity with Spodoptera exigua is on record as 0%; with Pyricularia oryzae it was 50%; with Zymoseptoria tritici it was 10%.

On to `CC1(c2nnc(-c3cccc(Cl)c3)o2)CC(c2c(Cl)cccc2Cl)=NO1` (stereo not drawn), for which the Activity worked out at 50% in the assay with Spodoptera exigua, 50% in the assay with Pyricularia oryzae and 0% in the assay with Zymoseptoria tritici.
